Data taken from ChEMBL document CHEMBL1145498, “A systematic interaction map of validated kinase inhibitors with Ser/Thr kinases” (Proc Natl Acad Sci U S A, 2007).

How the values were obtained:
[1] = Inhibition of Cdk5/p35
[2] = target: Mitogen-activated protein kinase 10 (Homo sapiens, UniProt P53779)
[3] = target: Serine/threonine-protein kinase ATR (Homo sapiens, UniProt Q13535); test: Inhibition of ATR
[4] = target: Serine-protein kinase ATM (Homo sapiens, UniProt Q13315); test: Inhibition of ATM
[5] = target: T1, Myosin light chain kinase, smooth muscle (Homo sapiens, UniProt Q15746); test: Inhibition of myosin light chain kinase
[6] = Inhibition of CaM-K1
[7] = Inhibition of CaM-K2
[8] = target: Mitogen-activated protein kinase 1 (Homo sapiens, UniProt P28482); test: Inhibition of ERK2
[9] = target: T1, Myosin light chain kinase, smooth muscle; test: Binding affinity at MLCK
[10] = target: Calcium/calmodulin-dependent protein kinase type IV (Homo sapiens, UniProt Q16566); test: Inhibition of CaM-K4
[11] = target: Tyrosine-protein kinase Lck (Homo sapiens, UniProt P06239)
[12] = target: Inhibitor of nuclear factor kappa-B kinase subunit beta (Homo sapiens, UniProt O14920); test: Inhibition of IKK-beta
[13] = Inhibition of mouse CaM kinase 2
[14] = Inhibition of serum-stimulated Akt kinase phosphorylation in human A375 cells; assay type: cell-based; details: A-375
[15] = target: Vascular endothelial growth factor receptor 2 (Homo sapiens, UniProt P35968); test: Inhibition of KDR
[16] = target: Protein kinase C alpha type (Homo sapiens, UniProt P17252); test: Inhibition of PKCalpha
A-375 = test: Antiproliferative activity against human A375 cells; assay type: functional, cell-based
[17] = target: Cyclin-dependent kinase 1 (Homo sapiens, UniProt P06493); test: Inhibition of Cdk1
[18] = target: Dual specificity mitogen-activated protein kinase kinase 1 (Homo sapiens, UniProt Q02750)
[19] = Inhibition of Cdk4/cyclin D
[20] = target: Tyrosine-protein kinase Fyn (Homo sapiens, UniProt P06241); test: Inhibition of Fyn
[21] = target: Protein kinase C delta type (Homo sapiens, UniProt Q05655); test: Inhibition of PKCdelta
[22] = Inhibition of Cdk1/cyclin A
Ephrin type-B receptor 3 = Ephrin type-B receptor 3 (Homo sapiens, UniProt P54753); test: Inhibition of EphB3
[23] = target: RAC-alpha serine/threonine-protein kinase (Homo sapiens, UniProt P31749); test: Inhibition of AKT
[24] = Inhibition of SGK
[25] = target: Protein kinase C beta type (Homo sapiens, UniProt P05771); test: Inhibition of PKCbeta
[26] = target: Proto-oncogene tyrosine-protein kinase Src (Homo sapiens, UniProt P12931); test: Inhibition of Src; details: read-out: IC50
[27] = Inhibition Cdk1/cyclin E
[28] = target: Epidermal growth factor receptor (Homo sapiens, UniProt P00533)
[29] = target: T2, Protein kinase C epsilon type (Homo sapiens, UniProt Q02156); test: Inhibition of PKCepsilon
T2 sequence (Q02156 whole entry): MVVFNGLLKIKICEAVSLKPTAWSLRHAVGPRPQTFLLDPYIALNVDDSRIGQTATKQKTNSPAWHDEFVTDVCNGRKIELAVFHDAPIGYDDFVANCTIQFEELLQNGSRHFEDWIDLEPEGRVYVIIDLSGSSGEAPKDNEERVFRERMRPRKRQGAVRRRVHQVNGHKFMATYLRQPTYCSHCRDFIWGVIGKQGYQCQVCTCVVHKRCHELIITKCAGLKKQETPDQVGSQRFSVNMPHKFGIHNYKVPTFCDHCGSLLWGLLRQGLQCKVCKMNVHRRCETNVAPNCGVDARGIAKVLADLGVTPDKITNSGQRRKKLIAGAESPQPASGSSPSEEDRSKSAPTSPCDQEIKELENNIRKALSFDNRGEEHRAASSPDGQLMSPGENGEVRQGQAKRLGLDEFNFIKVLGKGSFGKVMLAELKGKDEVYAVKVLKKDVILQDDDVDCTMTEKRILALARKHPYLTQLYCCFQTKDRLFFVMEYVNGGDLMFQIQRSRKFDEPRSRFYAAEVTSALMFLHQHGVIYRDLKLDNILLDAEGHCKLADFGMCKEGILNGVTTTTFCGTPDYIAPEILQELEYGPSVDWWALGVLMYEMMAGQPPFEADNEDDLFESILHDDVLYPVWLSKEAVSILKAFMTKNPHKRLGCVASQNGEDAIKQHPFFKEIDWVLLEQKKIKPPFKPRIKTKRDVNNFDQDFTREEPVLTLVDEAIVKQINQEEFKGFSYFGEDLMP

[30] = target: T3, Glycogen synthase kinase-3 beta (Homo sapiens, UniProt P49841); test: Binding affinity to GSK3-beta
[31] = target: T3, Glycogen synthase kinase-3 beta; test: Inhibition of GSK3-beta; details: read-out: IC50

T1 sequence (Q15746 whole entry): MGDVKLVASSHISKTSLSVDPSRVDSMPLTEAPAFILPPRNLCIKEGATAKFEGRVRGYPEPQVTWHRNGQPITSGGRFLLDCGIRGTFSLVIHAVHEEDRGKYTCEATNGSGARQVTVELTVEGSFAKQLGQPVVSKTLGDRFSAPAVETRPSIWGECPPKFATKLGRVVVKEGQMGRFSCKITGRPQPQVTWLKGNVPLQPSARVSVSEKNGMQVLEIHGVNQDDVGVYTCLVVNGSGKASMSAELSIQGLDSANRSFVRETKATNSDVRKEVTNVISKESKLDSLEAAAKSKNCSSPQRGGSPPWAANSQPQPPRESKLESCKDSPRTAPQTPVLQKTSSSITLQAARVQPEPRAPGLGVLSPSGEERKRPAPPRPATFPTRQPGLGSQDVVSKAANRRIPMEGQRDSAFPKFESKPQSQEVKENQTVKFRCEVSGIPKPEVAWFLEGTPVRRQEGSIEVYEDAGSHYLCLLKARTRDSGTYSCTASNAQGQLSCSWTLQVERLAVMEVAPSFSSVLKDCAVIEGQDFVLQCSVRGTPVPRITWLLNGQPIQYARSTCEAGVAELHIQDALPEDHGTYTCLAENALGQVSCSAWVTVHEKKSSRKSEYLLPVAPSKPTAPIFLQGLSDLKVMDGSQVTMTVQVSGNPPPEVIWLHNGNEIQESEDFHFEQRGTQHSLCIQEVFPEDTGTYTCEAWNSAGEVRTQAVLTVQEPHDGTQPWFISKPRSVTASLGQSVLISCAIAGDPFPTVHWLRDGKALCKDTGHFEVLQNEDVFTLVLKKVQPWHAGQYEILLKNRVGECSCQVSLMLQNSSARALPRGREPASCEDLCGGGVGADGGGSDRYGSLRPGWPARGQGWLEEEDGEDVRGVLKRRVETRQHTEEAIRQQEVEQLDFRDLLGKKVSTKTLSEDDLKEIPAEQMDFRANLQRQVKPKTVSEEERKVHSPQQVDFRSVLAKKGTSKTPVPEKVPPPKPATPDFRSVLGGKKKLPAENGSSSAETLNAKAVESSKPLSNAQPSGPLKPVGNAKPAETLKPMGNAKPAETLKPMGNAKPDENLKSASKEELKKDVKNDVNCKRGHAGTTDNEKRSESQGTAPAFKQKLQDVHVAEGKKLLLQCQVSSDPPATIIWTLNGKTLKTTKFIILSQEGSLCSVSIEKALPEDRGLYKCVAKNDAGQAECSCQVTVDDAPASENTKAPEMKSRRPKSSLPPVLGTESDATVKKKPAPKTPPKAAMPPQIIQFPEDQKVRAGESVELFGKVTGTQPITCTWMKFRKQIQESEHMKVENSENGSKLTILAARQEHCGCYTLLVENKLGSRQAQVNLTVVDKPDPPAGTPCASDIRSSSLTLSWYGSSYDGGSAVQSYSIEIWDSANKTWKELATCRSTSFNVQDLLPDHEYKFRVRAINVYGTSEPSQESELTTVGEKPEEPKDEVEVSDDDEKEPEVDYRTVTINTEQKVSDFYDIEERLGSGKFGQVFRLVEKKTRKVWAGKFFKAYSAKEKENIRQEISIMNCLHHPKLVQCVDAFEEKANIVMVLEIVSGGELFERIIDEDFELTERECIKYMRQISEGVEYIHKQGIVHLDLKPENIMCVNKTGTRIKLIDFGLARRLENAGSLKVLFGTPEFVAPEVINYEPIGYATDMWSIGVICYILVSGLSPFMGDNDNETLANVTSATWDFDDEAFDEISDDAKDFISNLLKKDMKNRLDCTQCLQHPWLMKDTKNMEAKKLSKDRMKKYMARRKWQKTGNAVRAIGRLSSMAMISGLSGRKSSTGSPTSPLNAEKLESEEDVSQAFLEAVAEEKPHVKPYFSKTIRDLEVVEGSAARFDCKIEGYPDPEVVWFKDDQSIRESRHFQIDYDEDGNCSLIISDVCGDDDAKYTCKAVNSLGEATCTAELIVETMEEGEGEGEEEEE
T3 sequence (P49841 whole entry): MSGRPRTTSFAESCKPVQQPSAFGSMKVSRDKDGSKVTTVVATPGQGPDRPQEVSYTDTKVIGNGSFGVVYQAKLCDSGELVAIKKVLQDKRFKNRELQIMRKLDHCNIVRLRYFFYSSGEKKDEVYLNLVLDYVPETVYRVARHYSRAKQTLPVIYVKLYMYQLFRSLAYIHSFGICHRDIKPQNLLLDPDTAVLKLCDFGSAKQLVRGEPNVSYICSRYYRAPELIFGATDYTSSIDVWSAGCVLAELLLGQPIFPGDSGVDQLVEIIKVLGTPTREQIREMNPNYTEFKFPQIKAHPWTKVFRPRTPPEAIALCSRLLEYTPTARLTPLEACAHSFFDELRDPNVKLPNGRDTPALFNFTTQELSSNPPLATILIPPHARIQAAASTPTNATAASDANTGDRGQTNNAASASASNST
Sequence of Tyrosine-protein kinase Fyn (P06241 whole entry): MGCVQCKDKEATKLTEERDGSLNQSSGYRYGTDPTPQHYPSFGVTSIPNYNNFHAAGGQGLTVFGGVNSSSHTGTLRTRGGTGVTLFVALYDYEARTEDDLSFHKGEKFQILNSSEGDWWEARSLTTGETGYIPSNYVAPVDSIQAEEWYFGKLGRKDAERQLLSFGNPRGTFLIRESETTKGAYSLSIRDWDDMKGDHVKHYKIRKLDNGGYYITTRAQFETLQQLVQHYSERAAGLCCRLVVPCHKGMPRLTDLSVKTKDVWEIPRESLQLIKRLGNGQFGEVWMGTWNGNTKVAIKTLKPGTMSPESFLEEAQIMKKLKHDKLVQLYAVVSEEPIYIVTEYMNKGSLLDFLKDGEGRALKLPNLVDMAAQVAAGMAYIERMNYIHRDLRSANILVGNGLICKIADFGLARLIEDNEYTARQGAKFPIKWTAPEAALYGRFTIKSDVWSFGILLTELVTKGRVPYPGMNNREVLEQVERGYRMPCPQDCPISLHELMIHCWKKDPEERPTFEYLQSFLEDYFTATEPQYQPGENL
Sequence of Proto-oncogene tyrosine-protein kinase Src (P12931 2-536 limits assumed): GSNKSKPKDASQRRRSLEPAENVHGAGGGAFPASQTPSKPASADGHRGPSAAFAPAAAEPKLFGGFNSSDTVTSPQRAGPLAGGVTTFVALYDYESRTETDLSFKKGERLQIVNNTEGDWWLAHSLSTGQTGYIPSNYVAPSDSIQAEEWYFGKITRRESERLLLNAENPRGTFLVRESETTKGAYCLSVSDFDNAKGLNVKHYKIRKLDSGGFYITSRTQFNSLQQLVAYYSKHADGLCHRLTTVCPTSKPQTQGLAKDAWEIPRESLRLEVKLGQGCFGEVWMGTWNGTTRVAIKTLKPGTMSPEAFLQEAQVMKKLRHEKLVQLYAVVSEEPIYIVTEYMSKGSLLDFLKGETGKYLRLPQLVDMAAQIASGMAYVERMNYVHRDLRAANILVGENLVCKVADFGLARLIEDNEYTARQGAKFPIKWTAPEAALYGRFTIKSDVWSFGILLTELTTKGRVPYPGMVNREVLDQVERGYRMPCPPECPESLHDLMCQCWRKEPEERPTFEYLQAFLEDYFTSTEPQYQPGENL
Sequence of RAC-alpha serine/threonine-protein kinase (P31749 whole entry): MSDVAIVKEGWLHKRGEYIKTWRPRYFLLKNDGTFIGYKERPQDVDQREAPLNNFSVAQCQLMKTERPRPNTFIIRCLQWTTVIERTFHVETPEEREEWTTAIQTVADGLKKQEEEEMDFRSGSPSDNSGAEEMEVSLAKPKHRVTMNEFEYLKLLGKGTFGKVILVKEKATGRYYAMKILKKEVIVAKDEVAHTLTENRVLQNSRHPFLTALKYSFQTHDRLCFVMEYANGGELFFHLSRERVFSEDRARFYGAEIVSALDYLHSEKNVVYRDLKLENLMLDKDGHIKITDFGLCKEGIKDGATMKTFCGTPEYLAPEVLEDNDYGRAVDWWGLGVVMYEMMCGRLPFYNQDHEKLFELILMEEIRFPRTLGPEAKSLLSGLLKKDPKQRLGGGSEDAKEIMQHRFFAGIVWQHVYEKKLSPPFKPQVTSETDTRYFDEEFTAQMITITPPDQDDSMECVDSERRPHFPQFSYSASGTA
Sequence of Mitogen-activated protein kinase 10 (P53779 whole entry): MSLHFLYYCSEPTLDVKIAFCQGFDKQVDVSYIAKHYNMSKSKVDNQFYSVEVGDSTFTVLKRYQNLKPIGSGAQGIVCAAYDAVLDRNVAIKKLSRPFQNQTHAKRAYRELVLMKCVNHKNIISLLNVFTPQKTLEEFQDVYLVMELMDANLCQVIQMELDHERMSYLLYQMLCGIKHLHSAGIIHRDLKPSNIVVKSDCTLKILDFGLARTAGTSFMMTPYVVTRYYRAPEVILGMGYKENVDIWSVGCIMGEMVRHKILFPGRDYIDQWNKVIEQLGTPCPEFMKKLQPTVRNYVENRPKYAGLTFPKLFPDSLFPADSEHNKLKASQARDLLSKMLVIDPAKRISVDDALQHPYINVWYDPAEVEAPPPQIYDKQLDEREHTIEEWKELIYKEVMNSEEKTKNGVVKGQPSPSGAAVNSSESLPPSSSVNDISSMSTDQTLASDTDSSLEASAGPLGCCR

Q: Which IC50 [1] does the source give for CC(C)[C@H](CO)Nc1nc(Nc2cccc(Cl)c2)c2ncn(C(C)C)c2n1 [PURVALANOLA] here?
A: 0.075 µM

Q: With Oc1c2ccccc2c2c3c(cccc13)N=N2 [SP-600125] as the molecule, how does the IC50 [2] read?
A: 0.09 µM

Q: With NC(N)=S [THIOUREA] as the molecule, how does the IC50 [3] read?
A: 0.2 µM

Q: And the IC50 [4]?
A: 0.2 µM

Q: With O=S(=O)(c1cccc2cnccc12)N1CCCNCC1 [FASUDIL] as the molecule, how does the IC50 [5] read?
A: 3.6 µM

Q: Which results are given for CC(=O)O.O=C(O)c1ccc2c3c1cccc3c(=O)n1c3ccccc3nc21?
A: IC50 [6]: > 10 µg/mL; IC50 [7]: 10 µg/mL; IC50 [8]: > 26.7 µM; IC50 [9]: 26.7 µM; IC50 [10]: > 26.7 µM

Q: For COc1c(C=O)c(O)cc2c1C(=O)c1ccccc1C2=O [DAMNACANTHAL], which IC50 [11] is on record?
A: 0.62 µM

Q: With NC(=O)Nc1sc(-c2ccccc2)cc1C(N)=O as the molecule, how does the IC50 [12] read?
A: 0.013 µM

Q: For CCN(CC)CCCCNc1ncc2cc(-c3cc(OC)cc(OC)c3)c(NC(=O)NC(C)(C)C)nc2n1 [PD-173074], which IC50 [4] is on record?
A: 17.6 µM

Q: Which IC50 [13] does the source give for Oc1cccc(-c2nc(N3CCOCC3)c3sccc3n2)c1 here?
A: 0.37 µM

Q: What about the IC50 [14] of the same molecule?
A: < 3 µM

Q: And the IC50 [15]?
A: ≥ 3.4 µM

Q: What about the IC50 [16] of the same molecule?
A: ≥ 3.4 µM

Q: And the IC50 (A-375)?
A: 0.58 µM

Q: Which IC50 [17] does the source give for O=Nc1c(-c2c(O)[nH]c3ccc(I)cc23)[nH]c2ccccc12 here?
A: 0.005 µM

Q: With O=C1C=CC(=O)c2ccccc21 [NAPHTHOQUINONE] as the molecule, how does the IC50 [18] read?
A: 0.38 µM

Q: With O=C1N=C(NCc2cccs2)S/C1=C/c1ccc2ncccc2c1 as the molecule, how does the Ki [19] read?
A: > 2 µM

Q: And the Ki [20]?
A: > 2 µM

Q: And the Ki [21]?
A: 0.318 µM

Q: And the Ki [22]?
A: 0.11 µM

Q: And the Ki (Ephrin type-B receptor 3)?
A: > 2 µM

Q: And the Ki [23]?
A: > 2 µM

Q: And the Ki [16]?
A: > 2 µM

Q: And the Ki [24]?
A: 0.497 µM

Q: With Cn1c2ccccc2c2c3c(c4c5ccccc5n(CCC#N)c4c21)CNC3=O [GO-6976] as the molecule, how does the IC50 [25] read?
A: 0.002 µM

Q: And the IC50 [16]?
A: 0.002 µM

Q: For O=C1Nc2ccccc2/C1=C1/Nc2ccccc2/C1=N\OCC(O)CO (configuration not stated), which IC50 [26] is on record?
A: 0.43 µM

Q: What about the IC50 [27] of the same molecule?
A: 0.21 µM

Q: Which IC50 [28] does the source give for CCn1cnc2c(N)nc(N(c3cccc(Cl)c3)[C@@H]3CCCC[C@@H]3N)nc21 (relative stereo) here?
A: > 10 µM

Q: And the IC50 [16]?
A: 6.1 µM

Q: Which IC50 [29] does the source give for COCc1cc(O)c(O)c(O)c1-c1c(COC)cc(O)c(O)c1O here?
A: 0.175 µM

Q: For CC(C)n1cnc2c(Nc3cccc(Cl)c3)nc(NCCO)nc21, which Kd [30] is on record?
A: 0.126 µM

Q: What about the IC50 [31] of the same molecule?
A: 0.03 µM
